Measured values taken from patent US5753709A, “N-acyl-2 aryl cyclopropylmethylamine derivatives as melatonergics” (Bristol-Myers Squibb Company, priority 1996, dated 1998).

Tests used:
[1] = tested on: rats; settings: exogenous administration; cited from earlier work
[2] = molecular target: T1, human melatonin receptor (human ML1A) (Homo sapiens, UniProt P48039); assay: Melatonergic binding: displacement of 2-[125I]-iodomelatonin at the human melatonin receptor (human ML1A in COS-1 membranes); settings: displacement of 2[125I]-Iodomelatonin (100 pM), 37° C., 1 hour
T1 construct: expressed in transfected cells; host or cells: COS-1 cells (transient, pcDNAI, DEAE-dextran); membrane homogenates
T1 sequence (P48039 whole entry): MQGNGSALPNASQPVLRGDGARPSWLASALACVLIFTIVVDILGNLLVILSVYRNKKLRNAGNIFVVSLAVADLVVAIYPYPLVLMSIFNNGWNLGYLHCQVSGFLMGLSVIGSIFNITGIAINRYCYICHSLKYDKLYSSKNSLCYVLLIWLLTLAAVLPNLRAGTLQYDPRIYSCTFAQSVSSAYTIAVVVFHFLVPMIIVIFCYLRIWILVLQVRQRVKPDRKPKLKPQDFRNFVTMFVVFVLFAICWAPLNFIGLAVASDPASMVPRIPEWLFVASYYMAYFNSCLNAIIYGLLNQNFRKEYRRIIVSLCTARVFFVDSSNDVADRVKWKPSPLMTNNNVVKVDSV
Description: The melatonergic binding of the compounds of Formula I was determined by a modification of the method of Reppert, S. M. et al. (Neuron, Volume 13, pages 1177-1185, 1994). […] The reagents, membranes, and other parameters used in the assay are described below:
(a) 50 mM Tris buffer containing 12.5 mM MgCl2, and 2 mM EDTA (pH 7.4 at 37° C.).
(b) Wash buffer: 20 mM Tris base containing 2 mM MgCl2 (pH 7.4 at room temperature).
(c) 6-Chloromelatonin (10^-5 M final concentration).
(d) 2-[^125 I]-Iodomelatonin (100 pM final concentration). (Source: NEN) Membrane preparation: The cDNA (human ML1A) in pcDNAI was introduced into COS-1 cells by the DEAE-dextran method. Three days later, after media removal, the plates were washed with buffered saline; the cells removed using Hank's balanced salt solution and pelleted. The supernant was discarded and the pellets frozen. For membrane homogenates, the pellets were thawed and resuspended in TME buffer, Tris base, MgCl2, EDTA (pH 7.4 at 37° C.), and supplemented with aprotinin, leupeptin, and phenylmethylsulfonyl fluoride. The cells were homogenized and centrifuged; the resulting pellet resuspended in TME and frozen. At assay, the small aliquot was thawed on ice and resuspended in TME buffer. Incubation: 37° C. for 1 hour. Reaction is terminated by filtration.

Structure (SMILES)	IC50 ([2]; Table 5) [nM]	other results
COc1ccc2[nH]cc(CCNC(C)=O)c2c1 [melatonin, N-acetyl-5-methoxytryptamine]	–	effect on circadian rhythms [1]: found to synchronize circadian rhythms in rats
CC(C)C(=O)NC[C@@H]1C[C@H]1c1cccc(F)c1 (single isomer, unassigned) [Example 65, (-)-(trans)-N-[[2-(3-Fluorophenyl)cycloprop-1-yl]methyl]-2-methylpropanamide]	250 to 600	–
CCCC(=O)NCC[C@@H]1C[C@H]1c1cccc(OC)c1 (single isomer, unassigned) [Example 16, (-)-(trans)-N-[[2-(3-Methoxyphenyl)cyclopropyl]ethyl]butanamide]	–	IC50 ([2]; Table 6): 250 to 600 nM
CCCC(=O)NC[C@@H]1C[C@H]1c1cccc(O)c1 (relative stereo) [Example 7a, (trans)-N-[[2-(3-Hydroxyphenyl)cyclopropyl]methyl] butanamide]	250 to 600	–
CCCC(=O)NC[C@@H]1C[C@H]1c1cccc(OCCC(C)CC(C)(C)C)c1 (relative stereo) [Example 121]	5 to 40	–
CCCC(=O)NC[C@@H]1C[C@H]1c1cc(OC)ccc1I (relative stereo) [Example 4, (trans)-N-[[2-(2-Iodo-5-methoxyphenyl)cyclopropyl]methyl]butanamide]	–	IC50 ([2]; Table 4): < 5 nM
CCCC(=O)NC[C@@H]1C[C@H]1c1cccc(OCC)c1 (relative stereo) [Example 48]	5 to 40	–
CCCC(=O)NC[C@@H]1C[C@H]1c1cccc(OCCCC#Cc2ccccc2)c1 (relative stereo) [Example 47]	250 to 600	–
CCCC(=O)NC[C@@H]1C[C@H]1c1cccc(OCCCc2cccc(OC)c2)c1 (single isomer, unassigned) [Example 84, (-)-(trans)-N-[[2-[3-[3-(3-Methoxyphenyl)propoxy]phenyl]cycloprop-1-yl)methyl] butanamide]	< 5	–
CCCC(=O)NC[C@@H]1C[C@H]1c1cc(OCCCc2cccc(OC)c2)ccc1I (single isomer, unassigned) [Example 93, (-)-(trans)-N-[[2-[2-Iodo-5-[3-(3-methoxyphenyl)propoxy]phenyl]cycloprop-1-yl)methyl] butanamide]	5 to 40	–
C=CCCCOc1cccc([C@@H]2C[C@H]2CNC(=O)CCC)c1 (relative stereo) [Example 105]	5 to 40	–
CCCC(=O)NC[C@@H]1C[C@H]1c1cccc(Br)c1 (relative stereo) [Example 73, (trans)-N-[[2-(3-Bromophenyl)cycloprop-1-yl]methyl] butanamide]	5 to 40	–
CCCCCCCCOc1cccc([C@@H]2C[C@H]2CNC(=O)CCC)c1 (relative stereo) [Example 54, (trans)-N-[[2-[(3-Octyloxy)phenyl]cyclopropyl]methyl] butanamide]	5 to 40	–
CCCC(=O)NC[C@@H]1C[C@H]1c1cccc(Cl)c1 (relative stereo) [Example 80, (trans)-N-[[2-(3-Chlorophenyl)cycloprop-1-yl]methyl] butanamide]	5 to 40	–
CCCC(=O)NC[C@@H]1C[C@H]1c1cccc(OCCCCC(C)C)c1 (relative stereo) [Example 100, (trans)-N-[[2-[3-(5-Methylhexyloxy)phenyl]cycloprop-1-yl]methyl] butanamide]	5 to 40	–
COc1ccc(F)c([C@@H]2C[C@H]2CNC(=O)C(C)C)c1 (relative stereo) [Example 1, (trans)-N-[[2-(2-Fluoro-5-methoxyphenyl)cyclopropyl]methyl]-2-methylpropanamide]	–	IC50 ([2]; Table 4): 40 to 250 nM
CCCC(=O)NC[C@@H]1C[C@H]1c1cccc(OCCc2ccccc2)c1 (relative stereo) [Example 60, (trans)-N-[[2-[3-[(2-Phenylethyl)oxy]phenyl]cyclopropyl]methyl] butanamide]	5 to 40	–
CCCC(=O)NC[C@@H]1C[C@H]1c1cccc(OCCCc2ccc(OC)cc2)c1 (relative stereo) [Example 127, (trans)-N-[[2-[3-[3-(4-Methoxyphenyl)propoxy]phenyl]cycloprop-1-yl]methyl]butanamide]	5 to 40	–
CCCCCCCCCOc1cccc([C@@H]2C[C@H]2CNC(=O)CCC)c1 (relative stereo) [Example 55, (trans)-N-[[2-[3-(Nonyloxy)phenyl]cyclopropyl]methyl] butanamide]	40 to 250	–
C#CC(C)=CCOc1cccc([C@@H]2C[C@H]2CNC(=O)CCC)c1 (relative stereo) [Example 122]	5 to 40	–
CCCC(=O)NC[C@@H]1C[C@H]1c1cccc(OCCCF)c1 (relative stereo) [Example 94]	40 to 250	–
CCCC(=O)NC[C@@H]1C[C@H]1c1cc(OC(F)(F)F)ccc1Br (relative stereo) [Example 72]	40 to 250	–
CCCC(=O)NC[C@@H]1C[C@H]1c1cccc(OCCO)c1 (relative stereo) [Example 15]	40 to 250	–
C=CCOc1cccc([C@@H]2C[C@H]2CNC(=O)CCC)c1 (relative stereo) [Example 7b, (trans)-N-[[2-[3-(2-Propenyloxy)phenyl]cyclopropyl]methyl] butanamide]	5 to 40	–
CCCC(=O)NC[C@@H]1C[C@H]1c1cccc(OCCCc2ccccc2)c1 (relative stereo) [Example 95, (trans)-N-[[2-[3[(3-Phenylprop-1-yl)oxy]phenyl]cycloprop-1-yl]methyl] butanamide]	5 to 40	–
CCCCCCCCCCCOc1cccc([C@@H]2C[C@H]2CNC(=O)CCC)c1 (relative stereo) [Example 57, (trans)-N-[[2-[(3-Undecyloxy)phenyl]cyclopropyl]methyl] butanamide]	5 to 40	–
CCCC(=O)NC[C@@H]1C[C@H]1c1cccc(OCCCCCCc2ccccc2)c1 (relative stereo) [Example 45]	40 to 250	–
CCCCCCCOc1cccc([C@@H]2C[C@H]2CNC(=O)CCC)c1 (relative stereo) [Example 53, (trans)-N-[[2-[3-(Heptyloxy)phenyl]cyclopropyl]methyl] butanamide]	40 to 250	–
COCC(=O)NC[C@@H]1C[C@H]1c1cccc(OC)c1 (relative stereo) [Example 20, (trans)-N-[[2-(3-Methoxyphenyl)cyclopropyl]methyl]-2-methoxyacetamide]	–	IC50 ([2]; Table 4): 5 to 40 nM
